Results: publication PMC3319098 (Journal of the American Chemical Society, 2012)

Columns and labels:
[1] = target: T1, bovine carbonic anhydrase (BCA) (Bos taurus, UniProt P00921); assay: MagLev measurement of BCA binding to ligand-functionalized PEGA beads; conditions: incubation with 0.33 mM BCA for 7 days; standard levitation buffer
[2] = target: T1, bovine carbonic anhydrase (BCA); conditions: resin-bound control ligand; cited from earlier work

T1 sequence (P00921 whole entry): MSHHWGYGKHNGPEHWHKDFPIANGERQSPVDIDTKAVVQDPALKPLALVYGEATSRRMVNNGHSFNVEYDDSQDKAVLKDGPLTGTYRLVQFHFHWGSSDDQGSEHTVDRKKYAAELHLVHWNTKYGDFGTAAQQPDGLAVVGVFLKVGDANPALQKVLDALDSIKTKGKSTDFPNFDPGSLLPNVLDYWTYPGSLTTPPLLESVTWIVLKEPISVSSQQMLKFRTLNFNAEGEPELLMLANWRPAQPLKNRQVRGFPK

CN(C)S(=O)(=O)c1ccc(C(=O)O)cc1 [sulfonamide 2, 4-dimethylsulfamoylbenzoic acid]
decrease in the levitation height of functionalized beads [1]: < 0.1 mm
association with BCA [2]: should not associate measurably
